Laboratory results taken from article PMC10057480, “Expanding the Library of 1,2,4-Oxadiazole Derivatives: Discovery of New Farnesoid X Receptor (FXR) Antagonists/Pregnane X Receptor (PXR) Agonists” (Molecules, 2023).

Assay: Metabolic stability in human liver S9 fraction
Assay type: in vitro ADME
Conditions: pH 7.4, 1 μM compound, 37 °C
Protocol: Human liver S9 fraction (Sigma-Aldrich, St. Louis, MO, USA) was used. All incubations were performed in duplicate in a thermoblock (Dlab dry bath HB 120-S) at 37 °C. The incubation mixtures contained 1 μM compound with 0.1% DMSO used as a vehicle, human liver S9 fraction (0.3 mg of protein per mL), 5 mM taurine, 5 mM glycine, 5 mM glucose 6-phosphate, 5 mM GSH, 1 mM NADPH, 1 mM ATP, 0.4 mM CoA, 0.4 mM UDPGA, 0.1 mM PAPS, and 0.4 U·mL^−1 glucose 6-phosphate dehydrogenase. All the cofactors were dissolved in a 50 mM potassium phosphate buffer (pH 7.4), containing 5 mM MgCl2, for a final volume of 0.25 mL. Aliquots of 25 µL were removed at 0, 5, 15, 30, 45, 60, and 90 min after S9 addition, and the reaction was stopped by adding 100 μL of ice-cold MeOH. The samples were centrifuged for 10 min at 10,000 rpm, and the supernatants were transferred into vials for LC-MS/MS analysis. The slope of the linear regression of the curve obtained by reporting the natural logarithm of compound area versus incubation time (−k) was used in the conversion to in vitro t1/2 values, calculated as t1/2 = −ln(2)/k. In vitro intrinsic clearance (Clint expressed as μL/min/mg) was obtained by first calculating V using the formula: V = volume of reaction (μL)/protein of liver microsomes (mg); intrinsic clearance was then calculated as: Clint = (V × ln2)/t1/2.

| half-life at 1 µM | microsomal CLint at 1 µM | SMILES |
| --- | --- | --- |
| 1.15 h | 33.7 µL/min/mg | CCCCCN1CCC(c2nc(-c3ccc4ccccc4c3)no2)CC1 [Compound 5, 3-(Naphthalen-2-yl)-5-(1-pentylpiperidin-4-yl)-1,2,4-oxadiazole] |
| 3.4 h | 11.3 µL/min/mg | OCc1ccc(CN2CCC(c3nc(-c4ccc5ccccc5c4)no3)CC2)cc1 [Compound 11, 5-[1-(4-(Hydroxymethyl)benzyl)piperidin-4-yl]-3-(naphthalen-2-yl)-1,2,4-oxadiazole] |
